Consider 47 molecules from patent US10034886B2, “GLP-1 receptor modulators” (Celgene International II SÀRL, priority 2014, dated 2018).

The term EC50 denotes the concentration needed to bring the measured effect to its halfway point.

The assay deals with T1, GLP-1R (Homo sapiens, UniProt P43220).
T1 construct: host or cells: GLP-1R CRE-bla CHO-K1 cells
T1 sequence (P43220 24-463): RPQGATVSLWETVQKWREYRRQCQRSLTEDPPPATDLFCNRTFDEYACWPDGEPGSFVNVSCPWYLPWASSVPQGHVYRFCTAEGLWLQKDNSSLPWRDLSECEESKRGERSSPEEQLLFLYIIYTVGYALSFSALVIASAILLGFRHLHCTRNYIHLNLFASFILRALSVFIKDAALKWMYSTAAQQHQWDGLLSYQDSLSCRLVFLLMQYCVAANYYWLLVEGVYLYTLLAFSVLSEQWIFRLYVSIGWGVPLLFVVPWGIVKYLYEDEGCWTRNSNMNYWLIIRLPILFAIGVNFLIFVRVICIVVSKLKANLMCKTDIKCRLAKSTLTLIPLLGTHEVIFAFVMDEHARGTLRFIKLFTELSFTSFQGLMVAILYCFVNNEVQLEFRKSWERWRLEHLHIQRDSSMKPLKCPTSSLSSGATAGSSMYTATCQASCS
T1 sequence (P01275 100-127 partner limits assumed): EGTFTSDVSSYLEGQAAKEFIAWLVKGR
Briefly: EC20 GLP-1(9-36) PAM cAMP assay: dose response of compound in the presence of fixed concentration of GLP-1(9-36). The assay is classed as cell-based. The following applies: GLP-1R CRE-bla CHO-K1 cells, compound dose response with fixed concentration of GLP-1(9-36), read-out: EC20 GLP-1(9-36) PAM EC50. The method in brief:
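Positive allosteric modulation read as cAMP accumulation: compound titrations (12 points) combined with an EC20 level of GLP-1(9-36) on CHO-K1 GLP-1R CRE-bla cells, IBMX present, 30 min, 37 °C, pH 7.4 buffer. Luminescence converted to cAMP via standards; non-linear fit gave EC50 and Emax.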
For orientation: Cyclic AMP is a second messenger, typically raised through Gs and lowered through Gi signalling.
Consider `CC(C)(C)c1ccc(C(=O)N[C@@H](Cc2ccc(-c3ncc(-c4ccc(-c5ccc(OC(F)(F)F)cc5)cc4F)cn3)cc2)C(=O)O)s1` [Compound 1365], for which the EC50 was below 0.8 µM.

`CC[C@H]1CC[C@H](c2ccc(-c3cnc(-c4ccc(C[C@H](NC(=O)c5ccc(C(C)(C)C)cc5)C(=O)O)cc4)nc3)cc2)CC1` [Compound 1366]: the EC50 was below 0.8 µM. For `CC[C@H]1CC[C@H](c2ccc(-c3cnc(-c4ccc(C[C@H](NC(=O)c5ccc(C(C)(C)C)nc5)C(=O)O)cc4)nc3)cc2)CC1` [Compound 1367] the value was below 0.8 µM.

As to `CC[C@H]1CC[C@H](c2ccc(-c3cnc(-c4ccc(C[C@H](NC(=O)c5cnc(C(C)(C)C)nc5)C(=O)O)cc4)nc3)cc2)CC1` [Compound 1368], the EC50 was below 0.8 µM. Take `CC[C@H]1CC[C@H](c2ccc(-c3cnc(-c4ccc(C[C@H](NC(=O)c5ccc(C(F)(F)F)s5)C(=O)O)cc4)nc3)cc2)CC1` [Compound 1369]: the EC50 was 0.8 to 2.5 µM. Take `CCc1ccc(C(=O)N[C@@H](Cc2ccc(-c3ncc(-c4ccc([C@H]5CC[C@H](CC)CC5)cc4)cn3)cc2)C(=O)O)cc1` [Compound 1370]: the EC50 is 0.8 to 2.5 µM. With `CC[C@H]1CC[C@H](c2ccc(-c3cnc(-c4ccc(C[C@H](NC(=O)c5ccc(C)cc5)C(=O)O)cc4)nc3)cc2)CC1` [Compound 1371] the figure was 0.8 to 2.5 µM; with `CCCc1ccc(C(=O)N[C@@H](Cc2ccc(-c3ncc(-c4ccc([C@H]5CC[C@H](CC)CC5)cc4)cn3)cc2)C(=O)O)cc1` [Compound 1372], 0.8 to 2.5 µM.

On to `CC[C@H]1CC[C@H](c2ccc(-c3cnc(-c4ccc(C[C@H](NC(=O)c5ccc(C(C)(C)C#N)s5)C(=O)O)cc4)nc3)cc2)CC1` [Compound 1373], for which the EC50 is below 0.8 µM. With `CC[C@H]1CC[C@H](c2ccc(-c3cnc(-c4ccc(C[C@H](NC(=O)c5ccc(C(F)(F)F)cc5)C(=O)O)cc4)nc3)cc2)CC1` [Compound 1374], the EC50 lay in the range of 0.8 to 2.5 µM.

Take `CCC(C)(C)c1ccc(C(=O)N[C@@H](Cc2ccc(-c3ncc(-c4ccc([C@H]5CC[C@H](CC)CC5)cc4)cn3)cc2)C(=O)O)cc1` [Compound 1375]: the EC50 lay within 0.8 to 2.5 µM. With `CC[C@H]1CC[C@H](c2ccc(-c3cnc(-c4ccc(C[C@H](NC(=O)c5ccc(C(C)=O)cc5)C(=O)O)cc4)nc3)cc2)CC1` [Compound 1376] the figure was 0.8 to 2.5 µM; with `CCCOc1ccc(C(=O)N[C@@H](Cc2ccc(-c3ncc(-c4ccc([C@H]5CC[C@H](CC)CC5)cc4)cn3)cc2)C(=O)O)cc1` [Compound 1377], 0.8 to 2.5 µM; with `CC[C@H]1CC[C@H](c2ccc(-c3cnc(-c4ccc(C[C@H](NC(=O)c5cnn(C(C)(C)C)c5)C(=O)O)cc4)nc3)cc2)CC1` [Compound 1378], below 0.8 µM. For `CC[C@H]1CC[C@H](c2ccc(-c3cnc(-c4ccc(C[C@H](NC(=O)c5ccc(S(C)(=O)=O)cc5)C(=O)O)cc4)nc3)cc2)CC1` [Compound 1379] the value was below 0.8 µM; for `CC[C@H]1CC[C@H](c2ccc(-c3cnc(-c4ccc(C[C@H](NC(=O)c5ccc(N(C)C)cc5)C(=O)O)cc4)nc3)cc2)CC1` [Compound 1380], 0.8 to 2.5 µM. As for `CC[C@H]1CC[C@H](c2ccc(-c3cnc(-c4ccc(C[C@H](NC(=O)c5ccc(CC(C)C)s5)C(=O)O)cc4)nc3)cc2)CC1` [Compound 1381], the EC50 lay within 5 to 10 µM. For `CC[C@H]1CC[C@H](c2ccc(-c3cnc(-c4ccc(C[C@H](NC(=O)c5ccc(OC(C)C)cc5)C(=O)O)cc4)nc3)cc2)CC1` [Compound 1382] the value was 0.8 to 2.5 µM; for `CC[C@H]1CC[C@H](c2ccc(-c3cnc(-c4ccc(C[C@H](NC(=O)c5ccc(CC(C)C)cc5)C(=O)O)cc4)nc3)cc2)CC1` [Compound 1383], 0.8 to 2.5 µM. For `CC[C@H]1CC[C@H](c2ccc(-c3cnc(-c4ccc(C[C@H](NC(=O)c5ccc(OC(F)(F)F)cc5)C(=O)O)cc4)nc3)cc2)CC1` [Compound 1384] the value was 0.8 to 2.5 µM; for `CC[C@H]1CC[C@H](c2ccc(-c3cnc(-c4ccc(C[C@H](NC(=O)c5ccc(C)s5)C(=O)O)cc4)nc3)cc2)CC1` [Compound 1385], 5 to 10 µM; for `CC[C@H]1CC[C@H](c2ccc(-c3cnc(-c4ccc(C[C@H](NC(=O)c5ccc(Cl)cc5)C(=O)O)cc4)nc3)cc2)CC1` [Compound 1386], 0.8 to 2.5 µM.

On to `CC[C@H]1CC[C@H](c2ccc(-c3cnc(-c4ccc(C[C@H](NC(=O)c5ccc(C(C)C)cc5)C(=O)O)cc4)nc3)cc2)CC1` [Compound 1387], for which the EC50 was below 0.8 µM. For `CC[C@H]1CC[C@H](c2ccc(-c3cnc(-c4ccc(C[C@H](NC(=O)c5ccc(C(F)(F)F)nc5)C(=O)O)cc4)nc3)cc2)CC1` [Compound 1388] the value was 0.8 to 2.5 µM. For `CC[C@H]1CC[C@H](c2ccc(-c3cnc(-c4ccc(C[C@H](NC(=O)c5ccc(C(C)C)s5)C(=O)O)cc4)nc3)cc2)CC1` [Compound 1389] the value was below 0.8 µM.

With `CCc1ccc(C(=O)N[C@@H](Cc2ccc(-c3ncc(-c4ccc([C@H]5CC[C@H](CC)CC5)cc4)cn3)cc2)C(=O)O)cn1` [Compound 1390], the EC50 lay in the range of 5 to 10 µM. Consider `CC[C@H]1CC[C@H](c2ccc(-c3cnc(-c4ccc(C[C@H](NC(=O)c5cnc(C6CC6)nc5)C(=O)O)cc4)nc3)cc2)CC1` [Compound 1391], for which the EC50 is below 0.8 µM. For the molecule `CC[C@H]1CC[C@H](c2ccc(-c3cnc(-c4ccc(C[C@@H](NC(=O)c5ccc(C(C)(C)C)s5)C(=O)O)cc4)nc3)cc2)CC1` [Compound 1392], the EC50 lay within 0.8 to 2.5 µM. Turning to `CCCc1ccc(-c2ccc(-c3cnc(-c4ccc(C[C@H](NC(=O)c5ccc(C(C)(C)C)s5)C(=O)O)cc4)nc3)cc2)cc1` [Compound 1393], the EC50 was in the range of 0.8 to 2.5 µM. Take `CCCCc1ccc(-c2ccc(-c3cnc(-c4ccc(C[C@H](NC(=O)c5ccc(C(C)(C)C)s5)C(=O)N5CC(C(=O)O)C5)cc4)nc3)cc2)cc1` [Compound 1394]: the EC50 is below 0.8 µM. Turning to `CC(C)c1ccc(-c2ccc(-c3cnc(-c4ccc(C[C@H](NC(=O)c5ccc(C(C)(C)C)s5)C(=O)N5CC(C(=O)O)C5)cc4)nc3)cc2)cc1` [Compound 1395], the EC50 is below 0.8 µM.

As to `CC(C)Oc1ccc(-c2ccc(-c3cnc(-c4ccc(C[C@H](NC(=O)c5ccc(C(C)(C)C)s5)C(=O)N5CC(C(=O)O)C5)cc4)nc3)c(F)c2)cc1` [Compound 1396], the EC50 was below 0.8 µM. With `CCCc1ccc(-c2ccc(-c3cnc(-c4ccc(C[C@H](NC(=O)c5ccc(CC)s5)C(=O)N5CC(C(=O)O)C5)cc4)nc3)c(F)c2)cc1` [Compound 1397] the figure was below 0.8 µM; with `CCCc1ccc(-c2ccc(-c3cnc(-c4ccc(C[C@H](NC(=O)c5ccc(C(C)C)s5)C(=O)N5CC(C(=O)O)C5)cc4)nc3)c(F)c2)cc1` [Compound 1398], below 0.8 µM; with `CCCc1ccc(-c2ccc(-c3cnc(-c4ccc(C[C@H](NC(=O)c5ccc(C(C)(C)C)cc5)C(=O)N5CC(C(=O)O)C5)cc4)nc3)c(F)c2)cc1` [Compound 1399], below 0.8 µM.

In the case of `CCCc1ccc(-c2ccc(-c3cnc(-c4ccc(C[C@H](NC(=O)c5ccc(C(F)(F)F)cc5)C(=O)N5CC(C(=O)O)C5)cc4)nc3)c(F)c2)cc1` [Compound 1400], the EC50 is below 0.8 µM.

Turning to `CCCc1ccc(-c2ccc(-c3cnc(-c4ccc(C[C@H](NC(=O)C5CCC(C(C)(C)C)CC5)C(=O)N5CC(C(=O)O)C5)cc4)nc3)c(F)c2)cc1` (some centres unmarked) [Compound 1401], the EC50 was below 0.8 µM.

In the case of `CCCc1ccc(-c2ccc(-c3cnc(-c4ccc(C[C@H](NC(=O)c5ccc(C(C)(C)CC)cc5)C(=O)N5CC(C(=O)O)C5)cc4)nc3)c(F)c2)cc1` [Compound 1402], the EC50 was below 0.8 µM.

On to `CCCc1ccc(-c2ccc(-c3cnc(-c4ccc(C[C@H](NC(=O)c5ccc(OC(C)(C)C)cc5)C(=O)N5CC(C(=O)O)C5)cc4)nc3)c(F)c2)cc1` [Compound 1403], for which the EC50 is below 0.8 µM. Consider `CCCc1ccc(-c2ccc(-c3cnc(-c4ccc(C[C@H](NC(=O)c5ccc(S(C)(=O)=O)cc5)C(=O)N5CC(C(=O)O)C5)cc4)nc3)c(F)c2)cc1` [Compound 1404], for which the EC50 was below 0.8 µM.

Consider `CCCc1ccc(-c2ccc(-c3cnc(-c4ccc(C[C@H](NC(=O)c5ccc(CC(C)C)s5)C(=O)N5CC(C(=O)O)C5)cc4)nc3)c(F)c2)cc1` [Compound 1405], for which the EC50 is below 0.8 µM. Regarding `CCCc1ccc(-c2ccc(-c3cnc(-c4ccc(C[C@H](NC(=O)c5ccc(C6CC6)s5)C(=O)N5CC(C(=O)O)C5)cc4)nc3)c(F)c2)cc1` [Compound 1406], the EC50 was below 0.8 µM. For `CCCc1ccc(-c2ccc(-c3cnc(-c4ccc(C[C@H](NC(=O)c5ccc(CC(C)C)cc5)C(=O)N5CC(C(=O)O)C5)cc4)nc3)c(F)c2)cc1` [Compound 1407] the value was below 0.8 µM; for `CCCc1ccc(-c2ccc(-c3cnc(-c4ccc(C[C@H](NC(=O)c5ccc(C(C)C)cc5)C(=O)N5CC(C(=O)O)C5)cc4)nc3)c(F)c2)cc1` [Compound 1408], below 0.8 µM; for `CCCc1ccc(-c2ccc(-c3cnc(-c4ccc(C[C@H](NC(=O)c5ccc(CCC)s5)C(=O)N5CC(C(=O)O)C5)cc4)nc3)c(F)c2)cc1` [Compound 1409], below 0.8 µM.

As to `CCCc1ccc(-c2ccc(-c3cnc(-c4ccc(C[C@H](NC(=O)c5ccc(C6CC6)cc5)C(=O)N5CC(C(=O)O)C5)cc4)nc3)c(F)c2)cc1` [Compound 1410], the EC50 is below 0.8 µM. As to `CCCCc1ccc(C2CCN(c3cnc(-c4ccc(C[C@H](NC(=O)c5ccc(C(C)(C)C)s5)C(=O)N5CC(C(=O)O)C5)cc4)nc3)CC2)cc1` [Compound 1412, (S)-1-(2-(5-(tert-butyl)thiophene-2-carboxamido)-3-(4-(5-(4-(4-butylphenyl)-piperidin-1-yl)pyrimidin-2-yl)phenyl)propanoyl)azetidine-3-carboxylic acid], the EC50 was below 0.8 µM.
